Tests used:
Type in all cases: physicochemical
[1] = Effect of [ligand]/[90Y3+] on the percent complexation
Description: (§1) A polyazamacrocyclic ligand ((L)-p-NO2-Bz-PCTA; (D)-p-NO2-Bz-PCTA; (L)-p-NCS-Bz-PCTA; (±)-p-NO2-Bz-DOTA, (±)-NPCTA, (±)-OXO and (L)-p-NO2-Bz-OXO) was combined with a metal ion (^90Y^3+, ^111In^3+, ^177Lu^3+) at room temperature in buffer at a molar ratio of the ligand to the metal ion of 100:1 for kinetic studies, 200:1 for stability studies or at values ranging from 2:1 to 200:1 for the molar ratio studies.
(§2) Complexation studies involving ^90Y^3+ and ^111In^3+ were conducted with 50-100 mM sodium acetate buffer, pH 5.0-7.0, while complexation studies involving ^177Lu^3+ were performed with 50 mM-100 mM sodium acetate buffer, pH 4-5.
(§3) 1 μL samples were taken at 10 minute intervals for kinetic studies, after 60 minutes in experiments studying the effect of the value of [ligand]/[metal ion] on the % complexation of the ligand, and at spaced intervals of 1-3 days for experiments studying the stability of complexes formed using the ligand of the present invention. […] The silica gel paper is cut in half and each half is measured in a gamma well counter. […] Each result shown in FIGS. 4-9 is the average of three separate trials.

[2] = Kinetics of complexation of polyazamacrocyclic ligand with 177Lu3+; settings: ^177Lu^3+; for percent complexation after 10 minutes: ligand:metal 100:1, 10 minutes; for time after which the maximum percent of complexation was observed / percent complexation of metal ion (in words): ligand:metal 100:1; for initial rate / kinetics of complexation (in words): ligand:metal 100:1, room temperature
Description: as §1, §2, §3

[3] = Effect of [ligand]/[111In3+] on the percent complexation
Description: as §1, §2, §3

[4] = Kinetics of complexation of polyazamacrocyclic ligand with 111In3+; settings: ^111In^3+; for initial rate / kinetics of complexation (in words): ligand:metal 100:1, room temperature
Description: as §1, §2, §3

[5] = Kinetics of complexation of polyazamacrocyclic ligand with 90Y3+; settings: ^90Y^3+; for initial rate / kinetics of complexation (in words): ligand:metal 100:1, room temperature; for percent complexation of metal ion (in words): ligand:metal 100:1
Description: as §1, §2, §3

[6] = Effect of [ligand]/[177Lu3+] on the percent complexation
Description: as §1, §2, §3

[7] = molar ratio of ligand/^111In^3+ of 5:1, after 60 minutes

Compound	percent complexation after 10 minutes [2] [%]	initial rate / kinetics of complexation (in words) [4]	time after which the maximum percent of complexation was observed [2] [min]	initial rate / kinetics of complexation (in words) [2]	percent complexation [3, 7] [%]	initial rate / kinetics of complexation (in words) [5]	percent complexation of metal ion (in words) [2]	percent complexation of metal ion (in words) [5]	also measured
O=C(O)CN1CCN(CC(=O)O)C[C@@H](Cc2ccc([N+](=O)[O-])cc2)N(CC(=O)O)Cc2cccc(n2)C1 [(D)-p-NO2-Bz-PCTA, 2,2′,2″-((4R)-4-(4-nitrobenzyl)-3,6,9,15-tetraazabicyclo[9.3.1]pentadeca-1(15),11,13-triene-3,6,9-triyl)triacetic acid]	~91	–	–	–	–	–	–	–	percent complexation ([1]; molar ratio of ligand/^90Y^3+ of 10:1, after 60 minutes): ~95%; percent complexation ([3]; molar ratio of ligand/^111In^3+ of 10:1, after 60 minutes): ~95%
COc1ccc([N+](=O)[O-])cc1C(C(=O)O)N1CCN(CC(=O)O)Cc2cccc(n2)CN(CC(=O)O)CC1 (racemic) [(±)-NPCTA, 2,2′-(6-(carboxy(2-methoxy-5-nitrophenyl)methyl)-3,6,9,15-tetraazabicyclo[9.3.1]pentadeca-1(15),11,13-triene-3,9-diyl)diacetic acid]	–	relatively slower	50	relatively slower	~76	relatively slower	–	–	percent complexation ([1]; molar ratio of ligand/^90Y^3+ of greater than 20:1, after 60 minutes): < 90%; percent complexation ([6]; molar ratio of ligand/^177Lu^3+ of greater than 20:1, after 60 minutes): < 95%
O=C(O)CN1CCN(CC(=O)O)C[C@H](Cc2ccc([N+](=O)[O-])cc2)N(CC(=O)O)Cc2cccc(n2)C1 [(L)-p-NO2-Bz-PCTA, 2,2′,2″-((4S)-4-(4-nitrobenzyl)-3,6,9,15-tetraazabicyclo[9.3.1]pentadeca-1(15),11,13-triene-3,6,9-triyl)triacetic acid]	–	–	–	fastest	–	fastest	highest	highest	percent complexation after 10 minutes ([4]; ligand:metal 100:1, 10 minutes): ~95%; percent complexation after 10 minutes ([5]; ligand:metal 100:1, 10 minutes): 95%; percent complexation ([6]; molar ratio of ligand/^177Lu^3+ of 5:1, after 60 minutes): ~95%
O=C(O)CN1CCOCCN(CC(=O)O)[C@@H](Cc2ccc([N+](=O)[O-])cc2)CN(CC(=O)O)CC1 [(L)-p-NO2-Bz-OXO, (S)-2,2′,2″-(5-(4-nitrobenzyl)-1-oxa-4,7,10-triazacyclododecane-4,7,10-triyl)triacetic acid]	–	fastest	–	fastest	–	–	highest	highest	–
O=C(O)CN1CCOCCN(CC(=O)O)CCN(CC(=O)O)CC1 (racemic) [(±)-OXO, 2,2′,2″-(1-oxa-4,7,10-triazacyclododecane-4,7,10-triyl)triacetic acid]	~95	fastest	–	–	–	–	highest	highest	–
O=C(O)CN1CCN(CC(=O)O)CCN(CC(=O)O)C(Cc2ccc([N+](=O)[O-])cc2)CN(CC(=O)O)CC1 (racemic) [(±)-p-NO2-Bz-DOTA, 2,2′,2″,2′″-(2-(4-nitrobenzyl)-1,4,7,10-tetraazacyclododecane-1,4,7,10-tetrayl)tetraacetic acid]	~95	–	40	–	~94	–	highest	highest	maximum values of complexation after 40 minutes ([4]; ligand:metal 100:1, after 40 minutes): ~89%; percent complexation ([3]; molar ratio of ligand/^111In^3+ of greater than 20:1, after 60 minutes): ≤ 95%
